Assay results reported in PMC7470021, “Functionality study of chalcone-hydroxypyridinone hybrids as tyrosinase inhibitors and influence on anti-tyrosinase activity” (Journal of Enzyme Inhibition and Medicinal Chemistry, 2020).
Where two headings read alike, the source gives them in different places.

Experiments:
[1] = molecular target: T1, monophenolase activity of mushroom tyrosinase (Agaricus bisporus, UniProt C7FF04); test: Monophenolase inhibition assay (L-tyrosine substrate, dopachrome absorbance at 475 nm); settings: pH 6.8, read-out: Inhibition (%) on monophenolase activity
T1 sequence (G1K3P4 entry or part of it): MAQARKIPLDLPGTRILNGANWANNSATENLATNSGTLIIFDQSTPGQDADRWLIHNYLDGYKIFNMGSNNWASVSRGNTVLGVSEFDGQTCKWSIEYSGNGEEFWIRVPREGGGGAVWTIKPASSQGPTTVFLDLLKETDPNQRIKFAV
T1 sequence (C7FF04 1-392): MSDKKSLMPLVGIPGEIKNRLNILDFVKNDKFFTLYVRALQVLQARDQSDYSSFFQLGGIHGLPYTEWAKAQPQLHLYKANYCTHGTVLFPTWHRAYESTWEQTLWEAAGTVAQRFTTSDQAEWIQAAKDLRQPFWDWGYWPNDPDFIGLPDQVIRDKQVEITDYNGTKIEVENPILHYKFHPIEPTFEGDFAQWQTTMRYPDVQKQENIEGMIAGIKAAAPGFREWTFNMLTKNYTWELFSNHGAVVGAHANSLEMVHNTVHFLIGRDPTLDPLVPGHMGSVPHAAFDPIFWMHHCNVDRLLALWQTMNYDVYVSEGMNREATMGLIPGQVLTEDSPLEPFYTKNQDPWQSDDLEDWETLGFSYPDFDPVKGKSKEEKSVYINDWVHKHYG
Description: L-Tyrosine and L-DOPA were used as reaction substrate for monophenolase and diphenolase assays, respectively. […] Finally, 20 units of enzyme was quickly added to the reaction mixture and incubated at 30 °C for 10 min. […] The assay was carried out in triplicate and DMSO was used as control[17].

[2] = parameters: method as in PMID 26239546; settings: literature value for kojic acid; cited from earlier work
[3] = pKa determination by spectrophotometric titration; type: physicochemical; settings: DMSO/water solution (molar ratio 0.2:1) with 0.1 M KCl, 25 °C
Description: (§1) An automated titration system used in the study consists of a Metrohm 765 Dosimat autoburette, a Mettler Toledo MP230 pH metre with SENTEK pH electrode (P11), and an HP 8453 UV-visible spectrophotometer with a Hellem quartz flow cuvette being circulated through by a Gilson Mini-plus #3 pump—speed capability (20 ml/min). A potassium chloride electrolyte solution (0.1 M) was used to maintain the ionic strength. The temperature of the test solutions was maintained in a thermostatic jacketed titration vessel at 25 °C (± 0.1 °C) using a Fisherbrand Isotemp water bath. The pH electrodes were calibrated using GLEE[25] with data obtained by titrating a volumetric standard HCl (0.1 M) in KCl (0.1 M) with KOH (0.1 M) under an argon gas atmosphere in the vessel. The solution under investigation was stirred vigorously during the experiment. […] All instruments were interfaced to a computer and controlled by an in-house programme. An automated titration adopted the following strategy: the pH of a solution was increased by 0.1 pH unit by the addition of KOH solution (0.1 M) from the autoburette. The pH readings were judged to be stable if their values varied by less than 0.01 pH unit after a set incubation period. […] The cycle was repeated until the defined end point pH value was achieved. Titrations were carried out in the solution with molar ratio of DMSO: H2O being 0.2: 1 due to the solubility issue of samples and/or the corresponding copper(II) complexes. Under this condition, the pH metre readings are shifted, compared to the aqueous solution. All the titration data were analysed with the HypSpec2014 programme (http://www.hyperquad.co.uk/)[26]^,[27]. The speciation plot and pM values were calculated with the HYSS programme. Based on deferiprone titrations, pCu^2+ at pH 7.6, denoted as pCu^2+7.6, with [ligand]total = 10 µM and [Metal]total = 1 µM, were calculated as close approximations for pCu^2+ at pH 7.4 in the aqueous solution. Analytical grade reagent materials were used in the preparation of all solutions.

[4] = Copper(II) stability constants determination and pCu2+; type: physicochemical
Description: as §1

[5] = system: mushroom tyrosinase; test: Reversibility of inhibitory effect on tyrosinase (L-DOPA substrate); type: biochemical; settings: inhibitor 0-25 µM, 30 °C, pH 6.8
From the text: Measurement method was substantially the same to that described above, changing the added concentration of the enzyme solution, different concentrations of inhibitor on mushroom tyrosinase L-DOPA as reaction substrate.

[6] = molecular target: T1, monophenolase activity of mushroom tyrosinase; parameters: method as in PMID 15231412; settings: at 50 μM, literature value; cited from earlier work
[7] = 25 °C, 0.1 M KCl, DMSO:H2O molar ratio 0.2:1

SMILES | inhibition at 50 µM [1] [%] | also measured
COc1ccc(C(=O)/C=C/c2cc(=O)c(O)cn2C)c(O)c1 [Compound 1b] | 66.7 | 
O=c1cc(CO)occ1O [Kojic acid] |  | pCu2+ [2]: 7.3
COc1ccc(C(=O)/C=C/c2cc(=O)c(O)c[nH]2)cc1OC [Compound 1n] | 87.6 | pKa ([3]; DMSO:H2O molar ratio 0.2:1, read-out: pKa (1-NH)): 12; pKa ([3]; DMSO:H2O molar ratio 0.2:1, read-out: pKa (4-oxo functional group)): 3.3; pKa ([3]; DMSO:H2O molar ratio 0.2:1, read-out: pKa (5-hydroxyl group)): 8.8; log β1 (log stability constant of copper complex CuLH) [4, 7]: 20.9; log β2 (log stability constant of copper complex CuL2H2) [4, 7]: 40.4; pCu2+ ([4]; [Cu]total=10^-6 M, [L]total=10^-5 M, pH 7.4, calculated from pKa and log stability constants with HYSS): 9.9
CCn1cc(O)c(=O)cc1/C=C/C(=O)c1ccc(O)c(O)c1 [Compound 1f] | 78.8 | 
COc1ccc(C(=O)/C=C/c2cc(=O)c(O)c[nH]2)c(O)c1 [Compound 1o] | 63.3 | 
CCn1cc(O)c(=O)cc1/C=C/C(=O)c1ccccc1 [Compound 1e] | 63.3 | 
Cn1cc(O)c(=O)cc1/C=C/C(=O)c1ccccc1 [Compound 1i] | 72.8 | 
O=C(/C=C/c1cc(=O)c(O)c[nH]1)c1ccccc1 [Compound 1m] | 66.7 | 
COc1ccc(C(=O)/C=C/c2cc(=O)c(O)co2)c(OC)c1 [Compound 1c] | 50.3 | 
O=C(/C=C/c1ccc(O)cc1)c1ccc(O)cc1O [2′,4′,4-trihydroxychalcone] |  | Inhibition rate [6]: 67%
CCn1cc(O)c(=O)cc1/C=C/C(=O)c1ccc(OC)cc1O [Compound 1g] | 71.4 | 

The next lines start with results.

inhibition at 50 µM [1] [%] | SMILES | also measured
50.3 | CCCCn1cc(O)c(=O)cc1/C=C/C(=O)c1ccc(F)cc1 [Compound 1l] | 
85.3 | Cn1cc(O)c(=O)cc1/C=C/C(=O)c1ccc(F)cc1 [Compound 1a] | Reversibility of inhibition on diphenolase activity of tyrosinase [5]: reversible
69.4 | CCCCn1cc(O)c(=O)cc1/C=C/C(=O)c1ccc(O)c(O)c1 [Compound 1j] | 
64.6 | CCCCn1cc(O)c(=O)cc1/C=C/C(=O)c1ccc(OC)cc1O [Compound 1k] | 
57.8 | CCn1cc(O)c(=O)cc1/C=C/C(=O)c1ccc(F)cc1 [Compound 1h] | 
89.5 | O=C(/C=C/c1cc(=O)c(O)c[nH]1)c1ccc(F)cc1 [Compound 1d] | Reversibility of inhibition on diphenolase activity of tyrosinase [5]: reversible
